From patent publication US10596239B2, “Peptide mixture” (TARGOVAX ASA, priority 2013, dated 2020)
Several values for one entry are separate records, joined by “and”; a condition that tells them apart may be missing. Equal entries are not always repeated.

Legend:
splenocytes = experiment: Splenocyte proliferation assay (3H-thymidine) following subcutaneous vaccination of mice with TG02; type: cell-based, BALB/c mice; conditions: 1 μg/200 μL ConA, 5 days
Experimental: In this Example, mice were repeatedly vaccinated subcutaneously with TG02, in order to analyse the immune response. Following the vaccination, splenocytes were harvested, and the proliferative response of the splenocytes was measured.
The study was conducted with 3 groups, each compromising 10 female BALB/c mice. The start of the study was performed on two separate days on which 5 of the animals per group were treated. Therefore the groups were divided into part I and part II. The animals were treated subcutaneously at different time points (Table 12).
In all groups the test item was administered at repeated time points (Table 15) by subcutaneous injection between the nape of the neck and the shoulder. The application volume for all groups was 0.1 mL (0.80 mg TG02).
The spleen of all animals was removed, transferred to cell culture medium (RPMI 1640 medium supplemented with 10% FCS, 100 U/ml Penicillin, 100 μg/mL Streptomycin, 2 mM L-Glutamine, and 50 μM beta-mercaptoethanol) and stored on ice. All steps were performed sterile and cells were kept on ice.
A single cell suspension from splenic cells was generated using a cell strainer. After centrifugation (350 g, 5 min, 5±3° C.), supernatant was removed and the cell pellet was resuspended in ACK buffer and incubated for 5 min at RT. 10 mL cell culture medium was added. The samples were left 5 min on bench top to let the cell debris sediment. The suspension above the cell debris was transferred into another tube and was centrifuged (350 g, 5 min, 5±3° C.). The supernatant was removed and the cell pellet was resuspended in 10 mL cell culture medium. After counting of cells, 0.2 Mio cells were seeded in a 96 well plate (180 μL per well; 1,1 *10^6 cells/mL). 9 replicates were plated on each plate for each spleen. • (1) 1 plate for harvesting of supernatant for cytokine measurement after 24 h (results not shown) • (2) 1 plate for harvesting of supernatant for cytokine measurement after 48 h (results not shown) • (3) 1 plate for the proliferation assay
The following stimulations were performed: • 3 replicates: unstimulated (addition of 20 μL cell culture medium) • 3 replicates: stimulation with 10 μM TG02 (8 peptides, 10 μM end concentration per peptide, addition in 20 μL cell culture medium) • 3 replicates: stimulation with 1 μg/200 μL, ConA (Concanavalin A) (addition of 1 μg ConA in 2.0 μL cell culture medium)
Incubation at 37° C. and 5% CO2 for 24 h (1), […] or 5 days (3).
Proliferation Assay • (3) After 5 days, 1 μCi/well ^3H-Thymidine was added to the samples, which were then incubated for 18 h at 37° C. and 5% CO2. The plates were then frozen at ≤−20° C.
Plates were thawed at RT. After washing off the harvester, the samples were transferred to a filter plate using the harvester followed by 5 washing steps using water. Filter plates were dried at RT overnight. A foil was stuck to the bottom of the filter plates and 20 μL scintillation fluid was added to the wells. After incubation of 1 h at RT, the samples were measured using a TopCount NXT and the stimulation index (SI) was calculated. SI=CPM of stimulated samples/CPM of control samples.

T cells = experiment: 3-days T cell proliferation assay (3H-thymidine) after three rounds of in vitro stimulation of PBMC bulk cultures with RAS peptides; type: cell-based, human; conditions: bulk cultures stimulated three rounds with TG02 + 13R, 10 μM peptide
Experimental: In this example, Buffy coats were collected from 4 normal human donors (Buffy 1, Buffy 2, Buffy 3, and Buffy 4) and were cultured in vitro. The in vitro PBMCs were stimulated with a single RAS peptide or a mixture of RAS peptides, and T cell proliferation assays performed.
The procedure must be performed at room temperature until point 5. All handling of cells in the open is done in a vertical laminar flow hood. • 1. Rapidly transfer the vials, each vial with frozen PBMC from a buffy coat (Buffy 1, Buffy 2, Buffy 3, and Buffy 4), to a water bath at 37° C. • 2. Shake the vials manually at regular intervals (approx. 2-3 min.) and remove them from the water bath while some ice is still present. • 3. When all the ice is melted, transfer 1 ml of CellGro DC medium drop-wise to the cell suspension. • 4. Transfer the cell suspension to a 50 ml tube containing 20 ml of CellGro DC medium. • 5. Centrifuge cells at 500 G for 5 min at room temperature. • 6. Resuspend the cells in 5 ml CellGro DC medium, • 7. Count the number of viable cells using a Bürker chamber or KOVA Galsstic slides and adjust the cell concentration to 2×10^6cells/ml in complete CellGro DC medium (see recipe). Total cell numbers: Buffy 1-45×10^6, Buffy 2-27.5×10^6, Buffy 3-40.5×10^6, and Buffy 4-40.5×10^6 cells. b. Bulk Cultures for Increasing Number of RAS Peptide Reactive T Cells • 1. […]

Substance	Counts per minute (CPM), Splenocytes + ConA, mean (splenocytes; Mean Mouse #4, vaccinated with TG02)	Counts per minute (CPM), Splenocytes + ConA, mean (splenocytes; Mean Mouse #7, vaccinated with TG02) [CPM]	Counts per minute (CPM), Splenocytes + ConA, mean (splenocytes; Mean Mouse #24, vaccinated with TG02 + ViscoGel) [CPM]	Counts per minute (CPM), Splenocytes + ConA, mean (splenocytes; Mean Mouse #29, vaccinated with TG02 + ViscoGel)	Counts per minute (CPM), Splenocytes + ConA, replicate (splenocytes; Mouse #4, vaccinated with TG02)	Counts per minute (CPM), Splenocytes + ConA, replicate (splenocytes; Mouse #7, vaccinated with TG02)	Counts per minute (CPM), Splenocytes + ConA, replicate (splenocytes; Mouse #24, vaccinated with TG02 + ViscoGel)	Counts per minute (CPM), Splenocytes + ConA, replicate (splenocytes; Mouse #29, vaccinated with TG02 + ViscoGel)	Counts per minute (CPM), Splenocytes + ConA, mean (splenocytes; Mouse #30 (last line, mean), vaccinated with TG02 + ViscoGel)	Counts per minute (CPM), Splenocytes + ConA, replicate (splenocytes; Mouse #30, vaccinated with TG02 + ViscoGel)	Counts per minute (CPM), APC + T cell + 13C, replicate (T cells; Donor #3)	Counts per minute (CPM), APC + T cell + 13C, mean (T cells; Mean Donor #3) [CPM]
Concanavalin A [ConA]	15,210 CPM	6158	8823	10,935 CPM	15,113 CPM and 12,612 CPM and 17,906 CPM	5305 CPM and 6252 CPM and 6916 CPM	7834 CPM and 8578 CPM and 10,057 CPM	9480 CPM and 13,292 CPM and 10,033 CPM	36,687 CPM	32,205 CPM and 35,668 CPM and 42,149 CPM		
KLVVVGAGCVGKSALTI (listed as Homo sapiens) [13C]											27813 CPM and 32522 CPM and 28869 CPM	29735
